# Source: PubChem BioAssay AID1199 (EPA DSSTox, 2008)
# The source made the active and inactive calls.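 Rule for the calls: active = a tumour-causing dose and a tumour site recorded for mice in at least one sex group; inconclusive = only government mouse studies exist and were judged inadequate; inactive = mouse studies exist but none gave tumours.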
# System: mouse carcinogenicity bioassay, TD50 from CPDB
# Assay: DSSTox (CPDBAS) Carcinogenic Potency Database Summary Mouse Bioassay Results
# Conditions: not given
# Outline: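 Values are TD50 carcinogenic potencies from mouse chronic bioassays, taking the most positive result for each sex-species. Sources are published literature and NCI/NTP studies; target sites reflect author-reported positive findings.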
row,Structure (SMILES),Potency [mmol/kg/day]
1,COS(C)(=O)=O,0.289

# Same assay, conditions: TD50_Mouse_Note: TD50_Mouse_mmol was not calculated for this mixture, but Activiity Score is assigned value of 50 to indicate active; TargetSites_Mouse_Female: no positive results
row,Structure (SMILES),outcome
1,CCOc1ccc(NC(=O)CC(C)O)cc1 (centres undefined),active; kidney

# Same assay, conditions: TD50_Mouse_Note: TD50 is harmonic mean of more than one positive test; TargetSites_Mouse_Female: all tumor bearing animals
row,Structure (SMILES),Potency [mmol/kg/day]
1,O=S(=O)(O)NC1CCCCC1,3.31

# Same assay, conditions: TD50_Mouse_Note: TD50 is harmonic mean of more than one positive test; TargetSites_Mouse_Female: ear Zymbals gland; harderian gland; liver; vascular system
row,Structure (SMILES),Potency [mmol/kg/day]
1,[O-]/[N+](=N\O)c1ccccc1,3.77

# Same assay, conditions: TD50_Mouse_Note: TD50 is harmonic mean of more than one positive test; TargetSites_Mouse_Female: harderian gland; pituitary gland; vascular system
row,Structure (SMILES),Potency [mmol/kg/day]
1,C=CC(=C)C,4.02

# Same assay, conditions: TD50_Mouse_Note: TD50 is harmonic mean of more than one positive test; TargetSites_Mouse_Female: hematopoietic system
row,Structure (SMILES),Potency [mmol/kg/day]
1,NC(=O)N(CCO)N=O,0.00615

# Same assay, conditions: TD50_Mouse_Note: TD50 is harmonic mean of more than one positive test; TargetSites_Mouse_Female: hematopoietic system; stomach
row,Structure (SMILES),Potency [mmol/kg/day]
1,Nc1nc(/C=C/c2ccc([N+](=O)[O-])o2)no1,0.504

# Same assay, conditions: TD50_Mouse_Note: TD50 is harmonic mean of more than one positive test; TargetSites_Mouse_Female: kidney
row,Structure (SMILES),Potency [mmol/kg/day]
1,O=C(O)CN(CC(=O)O)CC(=O)O,13.9

# Same assay, conditions: TD50_Mouse_Note: TD50 is harmonic mean of more than one positive test; TargetSites_Mouse_Female: large intestine; liver; stomach
row,Structure (SMILES),Potency [mmol/kg/day]
1,Cc1cc2ncccc2c2nc(N)n(C)c12,0.073

# Same assay, conditions: TD50_Mouse_Note: TD50 is harmonic mean of more than one positive test; TargetSites_Mouse_Female: liver
row,Structure (SMILES),Potency [mmol/kg/day]
1,Cc1ncc[nH]1,9.52
2,CCCCC(CC)COC(=O)CCCCC(=O)OCC(CC)CCCC (centres undefined),10.5
3,CCC1(c2ccccc2)C(=O)NCNC1=O,0.12
4,Cc1ccc(N=Nc2c(O)c(S(=O)(=O)O)cc3ccc(S(=O)(=O)O)cc23)c(C)c1,1.49
5,Brc1cc(Br)c(-c2cc(Br)c(Br)cc2Br)cc1Br,0.000529
6,ClC=C(Cl)Cl,2.61

# Same assay, conditions: TD50_Mouse_Note: TD50 is harmonic mean of more than one positive test; TargetSites_Mouse_Female: liver; lung
row,Structure (SMILES),Potency [mmol/kg/day]
1,CCCCC/C=N/N(C)C=O,0.0149

# Same assay, conditions: TD50_Mouse_Note: TD50 is harmonic mean of more than one positive test; TargetSites_Mouse_Female: liver; thyroid gland
row,Structure (SMILES),Potency [mmol/kg/day]
1,O=C1Nc2ccc(Cl)cc2C(c2ccccc2)=NC1O (centres undefined),0.125

# Same assay, conditions: TD50_Mouse_Note: TD50 is harmonic mean of more than one positive test; TargetSites_Mouse_Female: lung
row,Structure (SMILES),Potency [mmol/kg/day]
1,NC(=O)NNc1ccccc1,1.09

# Same assay, conditions: TD50_Mouse_Note: TD50 is harmonic mean of more than one positive test; TargetSites_Mouse_Female: lung; stomach
row,Structure (SMILES),Potency [mmol/kg/day]
1,CCCCN(N)CCCC,0.313

# Same assay, conditions: TD50_Mouse_Note: TD50 is harmonic mean of more than one positive test; TargetSites_Mouse_Female: mammary gland
row,Structure (SMILES),Potency [mmol/kg/day]
1,C=C(Cl)CSC(=S)N(CC)CC,0.189

# Same assay, conditions: TD50_Mouse_Note: TD50 is harmonic mean of more than one positive test; TargetSites_Mouse_Female: no positive results
row,Structure (SMILES),Potency [mmol/kg/day]
1,OCCN(CCO)C(=S)S,0.172

# Same assay, conditions: TD50_Mouse_Note: TD50 is harmonic mean of more than one positive test; TargetSites_Mouse_Female: small intestine
row,Structure (SMILES),Potency [mmol/kg/day]
1,O=C1c2ccccc2C(=O)N1SC(Cl)(Cl)Cl,5.23

# Same assay, conditions: TD50_Mouse_Note: TD50 is harmonic mean of more than one positive test; TargetSites_Mouse_Female: stomach
row,Structure (SMILES),Potency [mmol/kg/day]
1,O=C1CCO1,0.0172
2,Oc1ccc2c(c1)OCO2,32.5

# Same assay, conditions: TD50_Mouse_Note: TD50 is harmonic mean of more than one positive test; TargetSites_Mouse_Female: vagina
row,Structure (SMILES),Potency [mmol/kg/day]
1,Cc1cn([C@H]2C[C@H](N=[N+]=[N-])[C@@H](CO)O2)c(=O)[nH]c1=O,1.11

# Same assay, conditions: TD50_Mouse_Note: TD50 is harmonic mean of more than one positive test; greater than ten-fold variation among TD50 values for positive res; TargetSites_Mouse_Female: adrenal gland; liver
row,Structure (SMILES),Potency [mmol/kg/day]
1,ClC(Cl)(Cl)Cl,0.218

# Same assay, conditions: TD50_Mouse_Note: TD50 is harmonic mean of more than one positive test; greater than ten-fold variation among TD50 values for positive res; TargetSites_Mouse_Female: ear Zymbals gland; hematopoietic system; lung; mammary gland; ovary
row,Structure (SMILES),Potency [mmol/kg/day]
1,c1ccccc1,0.992

# Same assay, conditions: TD50_Mouse_Note: TD50 is harmonic mean of more than one positive test; greater than ten-fold variation among TD50 values for positive res; TargetSites_Mouse_Female: liver; lung
row,Structure (SMILES),Potency [mmol/kg/day]
1,ClC=C(Cl)Cl,12

# Same assay, conditions: TD50_Mouse_Note: TD50 is harmonic mean of more than one positive test; harmonic mean of TD50 includes a value for upper 99% confidence li; TargetSites_Mouse_Female: liver
row,Structure (SMILES),Potency [mmol/kg/day]
1,CCC1(c2ccccc2)C(=O)N=C(O)NC1=O (centres undefined),0.117

# Same assay, conditions: TD50_Mouse_Note: no positive results
row,Structure (SMILES),outcome
1,[Se],inactive
2,CSCCC(N)C(=O)O (centres undefined),inactive; no positive results

# Same assay, conditions: TD50_Mouse_Note: no positive results; TargetSites_Mouse_Female: no positive results
row,Structure (SMILES),outcome
1,CC(C)C[C@H]1C(=O)N2CCC[C@H]2[C@]2(O)O[C@](NC(=O)[C@@H]3C=C4c5cccc6[nH]c(Br)c(c56)C[C@H]4N(C)C3)(C(C)C)C(=O)N12,inactive; no positive results
2,OCl,inactive; no positive results
3,NNC(N)=S,inactive; no positive results
4,O=C1CCCCC1,inactive; no positive results
5,c1ccc2n[nH]nc2c1,inactive; no positive results
6,O=S(=O)([O-])[O-].[O]=[V+2],inactive; no positive results
7,CCC(O)OC(O)CC (centres undefined),inactive; no positive results
8,Nc1ccc(Nc2ccccc2)cc1,inactive; no positive results
9,CC1=C(/C=C/C(C)=C/C=C/C(C)=C/C(=O)O)C(C)(C)CCC1,inactive; no positive results
10,ClCOCCCCOCCl,inactive
11,O=[N+]([O-])c1cc([As](=O)(O)O)ccc1O,inactive; no positive results
12,O=C(Oc1ccccc1)Oc1ccccc1,inactive; no positive results
13,Clc1ccc(C(c2ccccc2Cl)C(Cl)Cl)cc1 (centres undefined),inactive; no positive results
14,O=c1c(O)c(-c2ccc(O)c(O)c2)oc2cc(O)cc(O)c12,inactive; no positive results
15,CCN(CC)CCOc1ccc(/C(=C(\Cl)c2ccccc2)c2ccccc2)cc1,inactive
16,CC(Oc1ccc(Cl)cc1Cl)C(=O)O (centres undefined),inactive; no positive results
17,[Cd+2].[Cl-].[Cl-],inactive
18,Cc1ccc(N)cc1Cl,inactive; no positive results
19,Cc1cc(O)c(C(C)(C)C)cc1Sc1cc(C(C)(C)C)c(O)cc1C,inactive; no positive results
20,CN1[C@@H]2CC(OC(=O)[C@@H](CO)c3ccccc3)C[C@H]1[C@@H]1O[C@@H]12 (some centres undefined),inactive; no positive results
21,Cc1cc(N=Nc2c(O)ccc3ccccc23)c(S(=O)(=O)O)cc1Cl,inactive; no positive results
22,COC(C(=O)O)c1ccccc1 (centres undefined),inactive; no positive results
23,Brc1c(Br)c(Br)c(Oc2c(Br)c(Br)c(Br)c(Br)c2Br)c(Br)c1Br,inactive; no positive results
24,NCCNc1cccc2ccccc12,inactive; no positive results
25,O=c1[nH]c(=O)n(C2CCCO2)cc1F (centres undefined),inactive; no positive results
26,Cc1ccc(OP(=O)(Oc2ccc(C)cc2)Oc2ccc(C)cc2)cc1,inactive; no positive results
27,[S-]c1nc2ccccc2s1.[S-]c1nc2ccccc2s1.[Zn+2],inactive; no positive results

row,Structure (SMILES),outcome
1,CCNc1nc(Cl)nc(NCC)n1,inactive; no positive results
2,O=C(Nc1ccc([N+](=O)[O-])cc1Cl)c1cc(Cl)ccc1O,inactive; ntp bioassay inadequate
3,CC(O)CN(C)c1ccc(NN)nn1 (centres undefined),inactive; no positive results
4,O=C(O)CCCC/C=C(\c1ccccc1)c1cccnc1,inactive; no positive results
5,NC(=S)NNC(N)=S,inactive; no positive results
6,Cc1cccc(OCC(O)CNC(C)(C)C)c1C (centres undefined),inactive; no positive results
7,CCc1cccc2c3c([nH]c12)C(CC)(CC(=O)O)OCC3 (centres undefined),inactive; no positive results
8,NC(=S)NNS(=O)(=O)c1ccccc1,inactive
9,c1ccc2[nH]c(-c3cscn3)nc2c1,inactive; no positive results
10,Nc1ccc(O)c([N+](=O)[O-])c1,inactive; no positive results
11,O=C1NS(=O)(=O)c2ccccc21,inactive; no positive results
12,C=Cc1cccc(C)c1,inactive; no positive results
13,N[C@@H](CCC(=O)NNc1ccc(CO)cc1)C(=O)O,inactive; no positive results
14,COc1ccc([N+](=O)[O-])cc1N=Nc1c(O)c(C(=O)Nc2cccc([N+](=O)[O-])c2)cc2ccccc12,inactive; no positive results
15,S=c1[nH]c2ccccc2s1,inactive; no positive results
16,CCOC(=O)[C@]1(c2ccccc2)CCC=C[C@H]1N(C)C,inactive; no positive results
17,C/C=C/c1ccc2c(c1)OCO2,inactive; no positive results
18,Nc1ncc([N+](=O)[O-])s1,inactive; no positive results
19,C1C2OC2C2C1C1CC2C2OC12 (centres undefined),inactive; no positive results
20,CN(C)C(=O)Nc1ccc(Cl)cc1,inactive; no positive results
21,O=C(O)CN(CC(=O)O)CC(=O)O,inactive; no positive results
22,[Na+],inactive; no positive results
23,O=C(O)COc1cc(Cl)c(Cl)cc1Cl,inactive; no positive results
24,C=C(C)C(=O)OC,inactive; no positive results
25,Clc1ccccc1,inactive; no positive results
26,CCCCCCc1ccc(O)cc1O,inactive; no positive results
27,S=C(SSSSSSC(=S)N1CCCCC1)N1CCCCC1,inactive; no positive results

# Same assay, conditions: TD50_Mouse_Note: positive test results only by intraperitoneal or intravenous injection; TargetSites_Mouse_Female: peritoneal cavity
row,Structure (SMILES),Potency [mmol/kg/day]
1,ClCOCC(COCCl)OCCl,0.0145

# Same assay, conditions: TargetSites_Mouse_BothSexes: no positive results
row,Structure (SMILES),outcome
1,Cc1cc(C)c(S(=O)(=O)O)cc1N=Nc1cc(S(=O)(=O)O)c2ccccc2c1O,inactive
2,[O]=[Nb](=[O])[OH],inactive

# Same assay, conditions: TargetSites_Mouse_Female: harderian gland; pituitary gland
row,Structure (SMILES),Potency [mmol/kg/day]
1,CC(I)C1OCC(CO)O1 (centres undefined),0.535

# Same assay, conditions: TargetSites_Mouse_Female: lung
row,Structure (SMILES),Potency [mmol/kg/day]
1,c1ccc2ccccc2c1,1.27

# Same assay, conditions: TargetSites_Mouse_Female: mammary gland
row,Structure (SMILES),Potency [mmol/kg/day]
1,NS(=O)(=O)c1cc(C(=O)O)c(NCc2ccco2)cc1Cl,2.21

# Same assay, conditions: TargetSites_Mouse_Female: no positive results
row,Structure (SMILES),Potency [mmol/kg/day]
1,O=CCCl,0.46
2,Cc1ccc(N=Nc2c(O)ccc3ccccc23)c([N+](=O)[O-])c1,116
3,Nc1ccc(-c2ccc(N)c(N)c2)cc1N,0.8
4,COc1c(Cl)c(Cl)c(Cl)c(Cl)c1Cl,0.243
5,Oc1ccc(Cl)cc1Cc1ccccc1,6.17
6,Nc1ccc(O)c(N)c1,0.726

# Same assay, conditions: TargetSites_Mouse_Female: ovary
row,Structure (SMILES),Potency [mmol/kg/day]
1,C=CC1CC=CCC1 (centres undefined),0.98

# Same assay, conditions: TargetSites_Mouse_Female: thyroid gland
row,Structure (SMILES),Potency [mmol/kg/day]
1,CCc1cc(C(N)=S)ccn1,0.417
